Measured values taken from patent US20220106288A1, “NOVEL SULFONEUREA COMPOUNDS” (INFLAZOME LIMITED, priority 2018, published 2022).
Where a name gives a salt, the structure may show the parent alone.

Tests used:
NLRP3 [1] = biological target: T1, NLRP3 (Homo sapiens, UniProt Q96P20); test: Human whole blood IL-1β release assay; format: cell-based; set-up: Human whole blood in Li-heparin tubes was obtained from healthy donors from a volunteer donor panel; from tissue; host or cells: human whole blood from healthy donors; details: LPS 1 μg/ml, nigericin 10 μM, IL-1β AlphaLisa, read-out: HWB IC50
Description: For systemic delivery, the ability to inhibit NLRP3 when the compounds are present within the bloodstream is of great importance. For this reason, the NLRP3 inhibitory activity of a number of compounds in human whole blood was investigated in accordance with the following protocol.
Human whole blood in Li-heparin tubes was obtained from healthy donors from a volunteer donor panel. • 1. […] Incubate for 3 hrs at 37° C., 5% CO2 • 4. Add 10 μl nigericin (Sigma #N7143) (10 μM FAC) to all wells • 5. Incubate for 1 hr at 37° C., 5% CO2 • 6. At the end of the incubation period, spin plates at 300 ×g for 5 mins to pellet cells and remove 20 μl of supernatant and add to 96-well v-bottom plates for IL-1β analysis (note: these plates containing the supernatants can be stored at −80° C. to be analysed at a later date) • 7. IL-1β was measured according to the manufacturer protocol (Perkin Elmer-AlphaLisa IL-1 Kit AL220F-5000) • 8. IC50 data is fitted to a non-linear regression equation (log inhibitor vs response-variable slope 4-parameters)

NLRP3 [2] = biological target: T1, NLRP3; test: THP-1 cells pyroptosis assay; format: cell-based; set-up: Seed THP-1 cells (25,000cells/well) containing 1.0 μg/ml LPS in 40 μl of RPMI medium; host or cells: THP-1 cells; details: LPS 1 μg/ml, nigericin 5 μM, resazurin readout
Description: The cells were routinely passaged and grown to confluency (˜10^6 cells/ml). On the day of the experiment, THP-1 cells were harvested and resuspended into RPMI medium (without FBS). The cells were then counted and viability (>90%) checked by Trypan blue (Sigma #T8154). […] To this diluted cell solution was added LPS (Sigma #L4524) to give a 1 μg/ml Final Assay Concentration (FAC). 40 μl of the final preparation was aliquoted into each well of a 96-well plate. The plate thus prepared was used for compound screening.
The following method step-by-step assay was followed for compound screening. • 1. […] Incubate for 3 hrs at 37° C., 5% CO2 • 4. Add 5 μl nigericin (Sigma #N7143) (FAC 5 μM) to all wells • 5. Incubate for 1 hr at 37° C., 5% CO2 • 6. At the end of the incubation period, spin plates at 300×g for 3 mins and remove supernatant • 7. Then add 50 μl of resazurin (Sigma #R7017) (FAC 100 μM resazurin in RPMI medium without FBS) and incubate plates for a further 1-2 hrs at 37° C. and 5% CO2 • 8. […] IC50 data is fitted to a non-linear regression equation (log inhibitor vs response-variable slope 4-parameters)

T1 sequence (Q96P20 whole entry): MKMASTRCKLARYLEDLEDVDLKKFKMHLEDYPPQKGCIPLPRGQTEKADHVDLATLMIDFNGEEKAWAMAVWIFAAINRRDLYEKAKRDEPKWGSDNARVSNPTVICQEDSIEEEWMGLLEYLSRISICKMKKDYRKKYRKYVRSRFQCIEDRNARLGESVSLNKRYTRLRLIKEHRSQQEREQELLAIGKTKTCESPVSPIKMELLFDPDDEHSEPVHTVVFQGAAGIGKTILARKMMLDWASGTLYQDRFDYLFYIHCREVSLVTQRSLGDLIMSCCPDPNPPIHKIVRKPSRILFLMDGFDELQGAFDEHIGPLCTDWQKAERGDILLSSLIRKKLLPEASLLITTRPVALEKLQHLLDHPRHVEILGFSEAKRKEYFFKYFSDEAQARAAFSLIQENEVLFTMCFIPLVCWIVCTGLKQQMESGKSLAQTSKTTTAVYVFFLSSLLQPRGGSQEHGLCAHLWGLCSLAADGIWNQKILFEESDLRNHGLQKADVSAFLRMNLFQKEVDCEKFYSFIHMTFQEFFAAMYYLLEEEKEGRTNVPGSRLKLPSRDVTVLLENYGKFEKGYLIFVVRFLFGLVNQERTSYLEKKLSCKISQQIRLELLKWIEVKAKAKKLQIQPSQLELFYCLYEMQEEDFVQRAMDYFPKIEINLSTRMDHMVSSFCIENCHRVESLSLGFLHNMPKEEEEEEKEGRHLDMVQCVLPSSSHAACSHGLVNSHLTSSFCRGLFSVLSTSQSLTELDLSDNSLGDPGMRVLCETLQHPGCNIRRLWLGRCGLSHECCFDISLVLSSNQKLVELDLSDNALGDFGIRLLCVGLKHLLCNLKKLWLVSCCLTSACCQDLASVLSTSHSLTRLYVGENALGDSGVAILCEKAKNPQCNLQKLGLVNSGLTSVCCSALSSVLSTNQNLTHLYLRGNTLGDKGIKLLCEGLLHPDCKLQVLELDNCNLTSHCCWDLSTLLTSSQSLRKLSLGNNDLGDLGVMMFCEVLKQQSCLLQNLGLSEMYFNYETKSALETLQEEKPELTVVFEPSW

Compound: Cc1cc(-c2c(C)cc3c(c2NC(=O)NS(C)(=O)=O)CCC3)ccn1 [Example 1, N-((6-Methyl-5-(2-methylpyridin-4-yl)-2,3-dihydro-1H-inden-4-yl)carbamoyl)methanesulfonamide]
- IC50 (NLRP3 [1]): 0.5 to 1 µM
- IC50 (NLRP3 [2]): 0.5 to 1 µM

Compound: Cc1cc2c(c(NC(=O)NS(C)(=O)=O)c1-c1ccncc1)CCC2 [Example 2]
- IC50 (NLRP3 [1]): 0.25 to 0.5 µM
- IC50 (NLRP3 [2]): ≤ 0.25 µM

Compound: Cc1cc2c(c(NC(=O)NS(C)(=O)=O)c1-c1ccnc(OC(F)F)c1)CCC2 [Example 3]
- IC50 (NLRP3 [1]): 0.5 to 1 µM
- IC50 (NLRP3 [2]): ≤ 0.25 µM

Compound: Cc1cc2c(c(NC(=O)NS(C)(=O)=O)c1-c1ccnc(OC3CC3)c1)CCC2 [Example 4]
- IC50 (NLRP3 [1]): 0.25 to 0.5 µM
- IC50 (NLRP3 [2]): ≤ 0.25 µM

Compound: CCOc1cc(-c2c(C)cc3c(c2NC(=O)NS(C)(=O)=O)CCC3)ccn1 [Example 5]
- IC50 (NLRP3 [1]): 0.25 to 0.5 µM
- IC50 (NLRP3 [2]): ≤ 0.25 µM

Compound: Cc1cc2c(c(NC(=O)NS(C)(=O)=O)c1-c1ccnc(O[C@H]3CC[C@@H](O)CC3)c1)CCC2 [Example 6]
- IC50 (NLRP3 [1]): ≤ 0.25 µM
- IC50 (NLRP3 [2]): ≤ 0.25 µM

Compound: COc1cc(-c2c(C)c(F)cc(C(C)C)c2NC(=O)NS(C)(=O)=O)ccn1 [Example 7]
- IC50 (NLRP3 [1]): 0.5 to 1 µM
- IC50 (NLRP3 [2]): 0.25 to 0.5 µM

Compound: [2H]C([2H])([2H])Oc1cc(-c2c(C)c(F)cc(C(C)C)c2NC(=O)NS(C)(=O)=O)ccn1 [Example 8]
- IC50 (NLRP3 [1]): 0.5 to 1 µM
- IC50 (NLRP3 [2]): 0.25 to 0.5 µM

Compound: [2H]C([2H])([2H])Oc1cc(-c2c(C)cc3c(c2NC(=O)NS(C)(=O)=O)CCC3)ccn1 [Example 10]
- IC50 (NLRP3 [1]): 0.25 to 0.5 µM
- IC50 (NLRP3 [2]): ≤ 0.25 µM

Compound: COc1cc(-c2c(C)cc3c(c2NC(=O)NS(=O)(=O)c2ccccc2)CCC3)ccn1 [Example 11]
- IC50 (NLRP3 [1]): 1 to 2 µM
- IC50 (NLRP3 [2]): ≤ 0.25 µM

Compound: COc1cc(-c2c(C)cc3c(c2NC(=O)NS(=O)(=O)C2CC2)CCC3)ccn1 [Example 12]
- IC50 (NLRP3 [1]): 0.5 to 1 µM
- IC50 (NLRP3 [2]): ≤ 0.25 µM

Compound: COc1cc(-c2c(C)cc3c(c2NC(=O)NS(=O)(=O)N(C)C)CCC3)ccn1 [Example 13]
- IC50 (NLRP3 [1]): 0.5 to 1 µM
- IC50 (NLRP3 [2]): ≤ 0.25 µM

Compound: Cc1cc2c(c(NC(=O)NS(C)(=O)=O)c1-c1ccnc(OC3CCCCC3)c1)CCC2 [Example 16]
- IC50 (NLRP3 [1]): 1 to 2 µM
- IC50 (NLRP3 [2]): ≤ 0.25 µM

Compound: Cc1cc2c(c(NC(=O)NS(=O)(=O)C(C)(C)C)c1-c1ccnc(OC3CCN(C)CC3)c1)CCC2 [Example 18]
- IC50 (NLRP3 [1]): 2 to 5 µM
- IC50 (NLRP3 [2]): ≤ 0.25 µM

Compound: Cc1cc2c(c(NC(=O)NS(=O)(=O)c3ccccc3)c1-c1ccnc(OC3CCN(C)CC3)c1)CCC2 [Example 19]
- IC50 (NLRP3 [1]): 0.5 to 1 µM
- IC50 (NLRP3 [2]): ≤ 0.25 µM

Compound: Cc1cc2c(c(NC(=O)NS(C)(=O)=O)c1-c1ccnc(OC3CCN(C)CC3)c1C)CCC2 [Example 20]
- IC50 (NLRP3 [1]): 0.25 to 0.5 µM
- IC50 (NLRP3 [2]): 0.25 to 0.5 µM

Compound: Cc1cc2c(c(NC(=O)NS(=O)(=O)C3CC3)c1-c1ccnc(OC3CCN(C)CC3)c1)CCC2 [Example 21]
- IC50 (NLRP3 [1]): ≤ 0.25 µM
- IC50 (NLRP3 [2]): ≤ 0.25 µM

Compound: Cc1cc2c(c(NC(=O)NS(C)(=O)=O)c1-c1ccnc(OC3CCOCC3)c1)CCC2 [Example 22]
- IC50 (NLRP3 [1]): ≤ 0.25 µM
- IC50 (NLRP3 [2]): ≤ 0.25 µM

Compound: COCC(C)Oc1cc(-c2c(C)cc3c(c2NC(=O)NS(C)(=O)=O)CCC3)ccn1 (centres unmarked) [Example 25]
- IC50 (NLRP3 [1]): 0.25 to 0.5 µM
- IC50 (NLRP3 [2]): ≤ 0.25 µM

Compound: Cc1cc2c(c(NC(=O)NS(=O)(=O)N(C)C)c1-c1ccnc(OC3CCN(C)CC3)c1)CCC2 [Example 26]
- IC50 (NLRP3 [1]): ≤ 0.25 µM
- IC50 (NLRP3 [2]): ≤ 0.25 µM

Compound: Cc1cc2c(c(NC(=O)NS(C)(=O)=O)c1-c1ccnc(OC3CCN(C)CC3)c1)CCC2 [Example 28]
- IC50 (NLRP3 [1]): ≤ 0.25 µM
- IC50 (NLRP3 [2]): ≤ 0.25 µM

Compound: COc1cc(-c2c(C)c(F)cc(C(C)C)c2NC(=O)NS(=O)(=O)c2ccn(C3CC3)n2)ccn1 [Example 29]
- IC50 (NLRP3 [1]): 1 to 2 µM
- IC50 (NLRP3 [2]): ≤ 0.25 µM

Compound: COc1cc(-c2c(NC(=O)NS(C)(=O)=O)c(C(C)C)cc(F)c2C2CC2)ccn1 [Example 31]
- IC50 (NLRP3 [1]): 1 to 2 µM
- IC50 (NLRP3 [2]): 0.5 to 1 µM

Compound: COc1cc(-c2c(F)c(F)cc(C(C)C)c2NC(=O)NS(C)(=O)=O)ccn1 [Example 33]
- IC50 (NLRP3 [1]): 1 to 2 µM
- IC50 (NLRP3 [2]): 0.5 to 1 µM

Compound: COc1cc(-c2c(C3CC3)cc3c(c2NC(=O)NS(C)(=O)=O)CCC3)ccn1 [Example 34]
- IC50 (NLRP3 [1]): 1 to 2 µM
- IC50 (NLRP3 [2]): ≤ 0.25 µM

Compound: COc1cc(-c2c(C)cc3c(c2NC(=O)NS(=O)(=O)c2ccn(C4CC4)n2)CCC3)ccn1 [Example 35]
- IC50 (NLRP3 [1]): 0.5 to 1 µM
- IC50 (NLRP3 [2]): ≤ 0.25 µM

Compound: Cc1cc2c(c(NC(=O)NS(C)(=O)=O)c1-c1ccnc(C#N)c1)CCC2 [Example 36]
- IC50 (NLRP3 [1]): 0.5 to 1 µM
- IC50 (NLRP3 [2]): 0.5 to 1 µM

Compound: CCc1c(F)cc(C(C)C)c(NC(=O)NS(C)(=O)=O)c1-c1ccnc(OC)c1 [Example 38]
- IC50 (NLRP3 [1]): 1 to 2 µM
- IC50 (NLRP3 [2]): 0.25 to 0.5 µM

Compound: COc1cc(-c2c(C)cc3c(c2NC(=O)NS(C)(=O)=O)CCC3)ccn1 [Example 40, N-((5-(2-Methoxypyridin-4-yl)-6-methyl-2,3-dihydro-1H-inden-4-yl)carbamoyl)methanesulfonamide, sodium salt]
- IC50 (NLRP3 [1]): 0.25 to 0.5 µM
- IC50 (NLRP3 [2]): ≤ 0.25 µM

Compound: CCS(=O)(=O)NC(=O)Nc1c2c(cc(C)c1-c1ccnc(OC)c1)CCC2 [Example 42]
- IC50 (NLRP3 [1]): 0.25 to 0.5 µM
- IC50 (NLRP3 [2]): ≤ 0.25 µM

Compound: Cc1cc2c(c(NC(=O)NS(=O)(=O)c3ccn(C(C)C)n3)c1-c1ccnc(OC3CCN(C)CC3)c1)CCC2 [Example 44]
- IC50 (NLRP3 [1]): 0.25 to 0.5 µM
- IC50 (NLRP3 [2]): ≤ 0.25 µM

Compound: Cc1cc2c(c(NC(=O)NS(=O)(=O)c3cc(C(C)(C)O)co3)c1-c1ccnc(OC3CCN(C)CC3)c1)CCC2 [Example 45]
- IC50 (NLRP3 [1]): 0.5 to 1 µM
- IC50 (NLRP3 [2]): ≤ 0.25 µM

Compound: Cc1nc(C(C)C)c(NC(=O)NS(=O)(=O)c2cc(C(C)(C)O)co2)n1-c1ccncc1 [Example 46, 4-(2-Hydroxypropan-2-yl)-N-((4-isopropyl-2-methyl-1-(pyridin-4-yl)-1H-imidazol-5-yl)carbamoyl)furan-2-sulfonamide, ammonium salt]
- IC50 (NLRP3 [1]): ≤ 0.25 µM
- IC50 (NLRP3 [2]): ≤ 0.25 µM

Compound: Cc1nc(C(C)C)c(NC(=O)NS(=O)(=O)c2ccn(C3CC3)n2)n1-c1ccncc1 [Example 47, 1-Cyclopropyl-N-((4-isopropyl-2-methyl-1-(pyridin-4-yl)-1H-imidazol-5-yl)carbamoyl)-1H-pyrazole-3-sulfonamide]
- IC50 (NLRP3 [1]): 0.25 to 0.5 µM
- IC50 (NLRP3 [2]): 0.25 to 0.5 µM

Compound: COc1cc(-n2c(C)nc(C(C)C)c2NC(=O)NS(=O)(=O)c2cc(C(C)(C)O)co2)ccn1 [Example 48, 4-(2-Hydroxypropan-2-yl)-N-((4-isopropyl-1-(2-methoxypyridin-4-yl)-2-methyl-1H-imidazol-5-yl)carbamoyl)furan-2-sulfonamide]
- IC50 (NLRP3 [1]): 0.25 to 0.5 µM
- IC50 (NLRP3 [2]): 0.25 to 0.5 µM

Compound: Cc1nc(C(C)C)c(NC(=O)NS(=O)(=O)N(C)C2CCN(C)C2)n1-c1ccncc1 (centres unmarked) [Example 49, 1-(5-Isopropyl-2-methyl-3-(4-pyridyl)imidazol-4-yl)-3-(methyl-(1-methylpyrrolidin-3-yl)sulfamoyl)urea]
- IC50 (NLRP3 [2]): 5 to 10 µM
